Results reported in the supplement of paper PMC10290057.
Where a name gives a salt, the structure may show the parent alone.

Columns and labels:
[1] = system: HCT116; experiment: efficacy (fitted maximal change in viability relative to DMSO control); higher = less cytotoxic (negative = loss of viability); settings: 48 h
[2] = system: HCT116; experiment: AC50 cell viability (CellTiter-Glo); higher = less potent; settings: 48 h
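For AC50 cell viability (CellTiter-Glo) in this document: HCT116 colorectal carcinoma cells screened at five concentrations per compound, luminescent viability scaled between DMSO wells and empty wells on each plate, curves fitted per compound.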
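For efficacy (fitted maximal change in viability relative to DMSO control) in this document: Luminescence-based viability readout, five doses per compound, normalized against on-plate DMSO and empty-well controls, followed by dose-response curve fitting for every drug.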

Structure (SMILES)	efficacy [1] [%]	AC50 cell viability [2] [µM]
CC(=O)Nc1ccc([C@H](C)C(=O)Nc2ncc(C(C)C)s2)cc1	-59.3	2.09
CC(C)(O)CC(=O)NCCn1ccc2ncnc(Nc3ccc(Oc4cccc(C(F)(F)F)c4)c(Cl)c3)c21 [TAK-285]	-101	16.6
C[C@@H](N)c1ccc(C(=O)Nc2ccnc3[nH]ccc23)cc1	-62.4	4.68
CCc1cc(-c2n[nH]c(C)c2-c2ccc3c(c2)OCCO3)c(O)cc1O	-87	7.42
CC[C@@H]1C(=O)N(C)c2cnc(Nc3ccc(C(=O)NC4CCC(N5CCN(CC6CC6)CC5)CC4)cc3OC)nc2N1C(C)C (stereo not given in full) [Volasertib]	-89.8	0.0661
CN1\C=N/C2=CC=C(NC3=CC(=CC=C3C)NC(=O)C4=CC(=CC=C4)C(C)(C)C#N)C=C2C1=O [AZ-628]	-50.6	0.332
Cc1n[nH]c2ccc(-c3cncc(OC[C@@H](N)Cc4ccccc4)c3)cc12	-69.5	0.59
OC[C@H]1O[C@H](C[C@@H]1O)N2/C=C(C(=O)NC2=O)/C(F)(F)F [Trifluridine]	-62.4	2.63
Cc1[nH]c2ccccc2c1CCNCc1ccc(/C=C/C(=O)NO)cc1 [Panobinostat]	-87.7	0.0468
Cc1cc(O[C@@H](CCC(F)(F)F)c2ccc(C(=O)NCCC(=O)O)cc2)cc(C)c1-c1ccc(C(C)(C)C)cc1 [Adomeglivant]	-115	26.3
C[C@@H](Oc1cc(-n2cnc3ccc(CN4CCN(C)CC4)cc32)sc1C(N)=O)c1ccccc1C(F)(F)F	-57.6	0.0468
COc1cc(Nc2ncc(F)c(Nc3ccc4c(n3)N(COP(=O)(O)O)C(=O)C(C)(C)O4)n2)cc(OC)c1OC [Fostamatinib]	-70.2	18.6
CN1CCC(C1CO)C2=C(O)C=C(O)C3=C2O\C(=C/C3=O)C4=CC=CC=C4Cl (stereo not given) [Riviciclib (P276-00)]	-73.4	0.372
C=CC(=O)N1CCC(CNc2ncnc(N)c2-c2ccc(Oc3ccccc3)cc2)CC1 [Evobrutinib]	-43.5	4.68
Fc1ccc(-c2nc(-c3ccccc3F)[nH]c2-c2ccncc2)cc1 [TA02]	-48.4	16.6
COC1(c2sc3c(N4CCOCC4)nc(-c4cnc(N)nc4)nc3c2C)COC1 [GNE-317]	-58.4	0.59
C[C@]12CC[C@@H]3c4ccc(O)cc4CC[C@H]3[C@@H]1CC[C@@H]2O [Estradiol]	-60.4	20.9
C=C1/C(=C/C=C2\CCCC3(C)[C@@H]([C@H](C)/C=C/C=C/C(O)(CC)CC)CC[C@@H]23)C[C@@H](O)C[C@@H]1O (stereo not given in full) [Seocalcitol]	-31.2	18.6
COc1cc2c(NC3CCN(CC4CCCCC4)CC3)nc(N3CCCN(C(C)C)CC3)nc2cc1OCCCN1CCCCC1 [UNC-0631]	-106	7.42
FC(F)(F)c1ccc(/C=C/c2nc(COc3ccc(CCCCn4ccnn4)cc3)co2)cc1 [Mubritinib]	-38.5	0.0209

Structure (SMILES)	efficacy [1] [%]	AC50 cell viability [2] [µM]
CC/1=C/C(=O)N(O)/C(=C1)C2CCCCC2 [Ciclopirox]	-89.1	3.72
CCCCCCCc1ccc(CCc2cccc(O)c2C(=O)O)cc1 [MG-149]	-42.3	18.6
CCCCNc1ncc(-c2ccc(CN3CCOCC3)cn2)c(N[C@H]2CC[C@H](O)CC2)n1 [UNC2250]	-51.5	3.62
CC(C)[C@@H](N(CCCN)C(=O)C1=CC=C(C)C=C1)C/2=C(\CC3=CC=CC=C3)C(=O)C4=C(O2)C=C(Cl)C=C4	-34.7	8.33
O=C(C(c1ccccc1)c1ccccc1)N1CCN(CC(O)COc2cccc3ncccc23)CC1 (stereo not given) [Dofequidar]	-50.3	18.6
Cc1nc2c([nH]1)-c1ccccc1N(C(=O)c1ccc(NC(=O)c3ccccc3-c3ccccc3)cc1)CC2 [Conivaptan hydrochloride]	-45.3	20.9
NC1=NC=C(C=C1)C2=CC=C3N=CC\4=C(N(C(=O)\C=C4)C5=CC(=CC=C5)C(F)(F)F)C3=C2 [Torin-2]	-96.6	0.166
CN1CC[C@H]([C@@H]1CO)C2=C3OC(=C/C(=O)C3=C(O)C=C2O)\C4=C(Cl)C=C(C=C4)C(F)(F)F [Voruciclib]	-83.8	7.42
O=C(/C=C\n1cnc(-c2cc(C(F)(F)F)cc(C(F)(F)F)c2)n1)NNc1ccccn1 [Verdinexor]	-83.9	0.59
CC(C)(O)CNc1ncc(-c2ccnc(Nc3ccncc3)n2)c(CC2CC2)n1 [VPS34 Inhibitor 1 (Compound 19, PIK-III analogue)]	-109	13.2
NC(=O)Nc1cc(-c2ccc(CN3CCOCC3)cc2)sc1C(N)=O [AZ-TAK1 Inhibitor]	-71	5.25
CC(C)NC(=O)COc1cccc(-c2nc(Nc3ccc4[nH]ncc4c3)c3ccccc3n2)c1 [KD-025]	-66.8	8.33
CN(C)c1ccccc1CN1CCCN(Cc2ccccc2N(C)C)C1c1ccncc1 [GANT-61]	-88.6	18.6
CCNCCc1ccc(CN(CC)c2cc(OC)ccc2[C@@H]2CCc3cc(O)ccc3C2)cc1 [Elacestrant]	-96.5	7.42
O=C(O)c1ccc2c(c1)nc(Nc1cccc(Cl)c1)c1ccncc12 [Silmitasertib]	-87.1	5.9
COC1=CC(=CC=C1)C2=CC=C(NC(=O)/C3=C(/CCC3)C(O)=O)C(=C2)F [Vidofludimus]	-50.2	5.25
CNC(=O)c1ccccc1Sc1ccc2c(/C=C/c3ccccn3)n[nH]c2c1 [Axitinib]	-80.4	14.8
COC(=O)/C=C/C(=O)N(O)CCCCNCc1ccc(COC(=O)Nc2cccc3ccccc23)cc1 [Methylstat]	-84.5	20.9
O=C1Nc2cc(Br)ccc2/C1=C1/Nc2ccccc2/C1=N\O [BIO]	-102	10.5
COc1cc2c(Nc3ccc(Cl)c(Cl)c3F)ncnc2cc1OC[C@@H]1C[C@@H]2CN(C)C[C@@H]2C1 [Tesevatinib]	-119	10.5

Structure (SMILES)	efficacy [1] [%]	AC50 cell viability [2] [µM]
NC1CCC(N[C@@H]2C[C@H]2c2ccccc2)CC1 (stereo not given in full) [ORY-1001]	-36	16.6
Nc1nc(F)nc2c1ncn2[C@@H]1O[C@H](COP(=O)(O)O)[C@@H](O)[C@@H]1O [Fludarabine phosphate]	-58.2	7.42
Cc1c[nH]c(-c2cnc(NCCNc3ccc(C#N)cn3)nc2-c2ccc(Cl)cc2Cl)n1	-72.6	26.3
Cc1ccc(-n2nc(C(C)(C)C)cc2NC(=O)Nc2ccc(OCCN3CCOCC3)c3ccccc23)cc1 [Doramapimod]	-76.9	20.9
CN(C)Cc1ccc(-c2nc3cccc4c3n2CCNC4=O)cc1	-65.6	5.9
CNC(=O)c1cc(Oc2ccc(NC(=O)Nc3cc(C(C)(C)C)nn3-c3ccc4ncccc4c3)c(F)c2)ccn1 [DCC-2036]	-76	11.8
Cn1nccc1Nc1nccc(-c2cc3c(s2)C(C)(C)N(CCN2CCOCC2)C3=O)n1	-57.4	0.525
Nc1ncnc(Nc2ccc(OCc3ccccc3)c(Cl)c2)c1/C=N/OCCN1CCOCC1	-98	26.3
NC(=O)/C(=C/n1cnc(-c2cc(C(F)(F)F)cc(C(F)(F)F)c2)n1)c1cncnc1 [Eltanexor]	-78.9	0.295
Cc1[nH]c2ccc(F)cc2c1-c1nc2c3cccnc3c3ncccc3c2[nH]1 [APTO-253]	-77.4	0.679
NCCOc1cc(C(=O)Nc2cc(OCCN)c3ccccc3n2)nc(C(=O)Nc2cc(OCCN)c3ccccc3n2)c1 [Pyridostatin]	-78.9	18.6
CCN(CC)C(=S)SSC(=S)N(CC)CC [Disulfiram]	-101	16.6
CNC(=O)c1ccc(Nc2ncc(C(F)(F)F)c(NCc3nccnc3N(C)[S+](C)(=O)[O-])n2)cc1 [Defactinib]	-71.4	1.86
CN(C)C/C=C/C(=O)Nc1cccc(C(=O)Nc2cccc(Nc3ncc(Cl)c(-c4c[nH]c5ccccc45)n3)c2)c1 [THZ-2]	-78.8	0.0934
N#Cc1c(NC(=O)c2cccc3ccccc23)sc2c1CCCC2 [TCS-JNK-5a]	-61.6	0.417
C=C1C(=O)OC2/C=C(/C)CC/C=C(/C)CCC12 (stereo not given) [Costunolide]	-86.2	20.9
O=C(NCC(=O)N1CC[C@H](NC2CCC(O)(c3ccc(-c4ncccn4)cn3)CC2)C1)c1cccc(C(F)(F)F)c1 (stereo not given in full)	-47	5.9
CC1=C(OC2=CC3=NC=N[N]3C=C2)C=CC(=C1)NC4=NC=NC5=C4C=C(N\C6=N\C(C)(C)CO6)C=C5 [Tucatinib]	-71.1	20.9
C[C@@H]1CN(Cc2ccc(F)cc2)CCN1C(=O)COc1ccc(Cl)cc1NC(N)=O [BX-471]	-59.8	0.209
CC(C)C[C@H](NC(=O)[C@@H](NC(=O)c1cccc(-c2ccccc2)n1)[C@@H](C)O)B(O)O [Delanzomib]	-84.8	0.0362
